ChEMBL document CHEMBL1201862, “PubChem BioAssay data set” (2004)
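96-well plates; 48 h exposure; 5 concentrations. Endpoints by linear interpolation between flanking doses. Not reached: highest tested concentration assigned. At the GI50, growth is halved.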 The source made the active and inactive calls. Rule as the data show it: active = GI50 up to about 1.1 µM and inactive = higher.

What was measured:
Assay in all cases: NCI-60 cell line screen, 48 h
OVCAR-5 = test system: OVCAR-5
IGROV-1 = test system: IGROV-1
SN12C = test system: SN12C
U-251 = test system: U-251
RPMI-8226 = test system: RPMI-8226
SF-295 = test system: SF-295
UACC-62 = test system: UACC-62
HCT-15 = test system: HCT-15
786-0 = test system: 786-0
MCF7 = test system: MCF7
HOP-62 = test system: HOP-62
SK-MEL-28 = test system: SK-MEL-28
SF-539 = test system: SF-539
MOLT-4 = test system: MOLT-4
HCT-116 = test system: HCT-116
SNB-75 = test system: SNB-75
SK-MEL-5 = test system: SK-MEL-5
M14 = test system: M14
CAKI-1 = test system: CAKI-1
COLO 205 = test system: COLO 205

Row | Structure (SMILES) | GI50 (OVCAR-5) | GI50 (IGROV-1) | GI50 (SN12C) | GI50 (U-251) | GI50 (RPMI-8226) | GI50 (SF-295) | GI50 (UACC-62) | GI50 (HCT-15) | GI50 (786-0) | GI50 (MCF7) | GI50 (HOP-62) | GI50 (SK-MEL-28) | GI50 (SF-539) | GI50 (MOLT-4) | GI50 (HCT-116) | GI50 (SNB-75) | GI50 (SK-MEL-5) | GI50 (M14) | GI50 (CAKI-1) | GI50 (COLO 205)
1 | CCCCCCOc1ccc(NC2=C(Cl)C(=O)c3cccnc3C2=O)cc1 | 2.4 µM (inactive) | 1.88 µM (inactive) | 1.68 µM (inactive) | 2.29 µM (inactive) | 0.684 µM (active) | 3.65 µM (inactive) | 1.07 µM (active) | 1.79 µM | 1.48 µM (inactive) | 1.21 µM (inactive) | 2.17 µM (inactive) | 2.13 µM (inactive) | 2.09 µM (inactive) | 1.87 µM (inactive) | 0.895 µM (active) | 1 µM (active) | 1.11 µM (active) | 1.3 µM (inactive) |  | 
2 | OCC1CCCC(n2cnc3c(S)ncnc32)O1 (stereo not drawn) | > 100 µM (inactive) | > 100 µM (inactive) | > 100 µM (inactive) | > 100 µM (inactive) | > 100 µM (inactive) | > 100 µM (inactive) | > 100 µM (inactive) | > 100 µM | > 100 µM (inactive) | > 100 µM (inactive) | > 100 µM (inactive) | > 100 µM (inactive) |  |  | > 100 µM (inactive) | > 100 µM (inactive) | > 100 µM (inactive) | > 100 µM (inactive) | > 100 µM (inactive) | > 100 µM (inactive)
3 | COc1ccc2c(c1)c1c(n2CCN(C)C)-c2cccc(OC)c2CC1 | 15.7 µM (inactive) | 18.5 µM (inactive) | 13.7 µM (inactive) | 11.6 µM (inactive) | 2.05 µM (inactive) | 13.5 µM (inactive) | 15.2 µM (inactive) | 15.3 µM | 22.3 µM (inactive) | 13.2 µM (inactive) | 13.8 µM (inactive) | 14.2 µM (inactive) |  | 7.14 µM (inactive) | 13.3 µM (inactive) | 5.43 µM (inactive) | 10.4 µM (inactive) | 11 µM (inactive) | 13.1 µM (inactive) | 6.62 µM (inactive)
4 | OCc1c2c(cc3c1CC1(C3)Cc3cc4c(c(CO)c3C1)CCC4)CCC2 | 19.8 µM (inactive) | 15.5 µM (inactive) | 16.9 µM (inactive) | 15.8 µM (inactive) | 21.1 µM (inactive) | 12.4 µM (inactive) | 16.7 µM (inactive) | 18 µM | 14.2 µM (inactive) | 23.5 µM (inactive) | 15.6 µM (inactive) |  | 17.4 µM (inactive) | 9.95 µM (inactive) | 13.6 µM (inactive) |  | 5.81 µM (inactive) | 18 µM (inactive) |  | 24.3 µM (inactive)
5 | CN1C(=O)C(CC=O)(C(C)(C)C)c2ccccc21 (stereo not drawn) | > 100 µM (inactive) |  | > 100 µM (inactive) | > 100 µM (inactive) | 37.9 µM (inactive) | > 100 µM (inactive) | 93.5 µM (inactive) | 90.6 µM | 41.8 µM (inactive) | 69.7 µM (inactive) | > 100 µM (inactive) | > 100 µM (inactive) |  | 56.8 µM (inactive) | 76.4 µM (inactive) | 99.5 µM (inactive) | > 100 µM (inactive) | > 100 µM (inactive) | 54.7 µM (inactive) | > 100 µM (inactive)
6 | CC(C)(C)c1cc2c(c(C(C)(C)C)c1O)CC(=O)O2 | 71.6 µM (inactive) | 40.1 µM (inactive) | 34.8 µM (inactive) | 41.9 µM (inactive) | 23.6 µM (inactive) | 32.2 µM (inactive) | 23.2 µM (inactive) | 45.9 µM | 26.5 µM (inactive) | 35.6 µM (inactive) | 30.3 µM (inactive) | 40.6 µM (inactive) | 23.2 µM (inactive) | 35.1 µM (inactive) | 30.1 µM (inactive) |  | 17.1 µM (inactive) | 25.8 µM (inactive) |  | 22.2 µM (inactive)
7 | O=C(NCC(O)COc1ccccc1)c1ccccc1O (stereo not drawn) | > 100 µM (inactive) | > 100 µM (inactive) | > 100 µM (inactive) | > 100 µM (inactive) | > 100 µM (inactive) | > 100 µM (inactive) | 55 µM (inactive) | > 100 µM | > 100 µM (inactive) | > 100 µM (inactive) | > 100 µM (inactive) | > 100 µM (inactive) | > 100 µM (inactive) | 14.5 µM (inactive) | > 100 µM (inactive) |  | 63.5 µM (inactive) | > 100 µM (inactive) | > 100 µM (inactive) | > 100 µM (inactive)
8 | COc1ccc(-c2nc(-c3cnccn3)n(C3OC(CO)C(O)C(O)C3O)n2)cc1 (stereo not drawn) | > 100 µM (inactive) | > 100 µM (inactive) | > 100 µM (inactive) | > 100 µM (inactive) | > 100 µM (inactive) | > 100 µM (inactive) | > 100 µM (inactive) | > 100 µM | > 100 µM (inactive) | > 100 µM (inactive) | > 100 µM (inactive) | > 100 µM (inactive) | > 100 µM (inactive) | > 100 µM (inactive) | > 100 µM (inactive) | > 100 µM (inactive) | > 100 µM (inactive) | > 100 µM (inactive) |  | > 100 µM (inactive)
9 | O=[N+]([O-])C1CC/C(=N/O)c2nonc21 (stereo not drawn) | > 10 µM (inactive) | > 10 µM (inactive) | > 10 µM (inactive) | > 10 µM (inactive) | > 10 µM (inactive) | > 10 µM (inactive) | > 10 µM (inactive) | > 10 µM | > 10 µM (inactive) | > 10 µM (inactive) | > 10 µM (inactive) | > 10 µM (inactive) | > 10 µM (inactive) | > 10 µM (inactive) | > 10 µM (inactive) |  | > 10 µM (inactive) | > 10 µM (inactive) | > 10 µM (inactive) | > 10 µM (inactive)
10 | CC(=O)ON1C(=O)c2cccc3cccc(c23)C1=O | 35.1 µM (inactive) | 7.28 µM (inactive) |  | 14.8 µM (inactive) | 12.7 µM (inactive) | 20.9 µM (inactive) | 19.9 µM (inactive) | 18 µM |  | 16 µM (inactive) | 22.8 µM (inactive) | 17.9 µM (inactive) | 16.4 µM (inactive) | 15.6 µM (inactive) | 6.93 µM (inactive) |  | 13.2 µM (inactive) | 21.6 µM (inactive) | 17.9 µM (inactive) | 26.8 µM (inactive)
11 | OCCNCO | > 100 µM (inactive) | > 100 µM (inactive) | > 100 µM (inactive) | > 100 µM (inactive) | > 100 µM (inactive) | > 100 µM (inactive) | > 100 µM (inactive) | > 100 µM | > 100 µM (inactive) |  | > 100 µM (inactive) | > 100 µM (inactive) | > 100 µM (inactive) | > 100 µM (inactive) | > 100 µM (inactive) | > 100 µM (inactive) | > 100 µM (inactive) | > 100 µM (inactive) | > 100 µM (inactive) | > 100 µM (inactive)
12 | CC(C)=CC1C(C(=O)Oc2ccccc2C(C)C)C1(C)C (stereo not drawn) | 27.1 µM (inactive) | 29.8 µM (inactive) | 20.5 µM (inactive) | 16.7 µM (inactive) | 19.3 µM (inactive) | 17.7 µM (inactive) | 36.7 µM (inactive) | 21 µM | 19.9 µM (inactive) | 19.8 µM (inactive) | 27.9 µM (inactive) | 39.1 µM (inactive) |  |  | 20.8 µM (inactive) | 21.3 µM (inactive) | 18.2 µM (inactive) | 31.6 µM (inactive) | 32.4 µM (inactive) | 
13 | NNc1nnc(CCCCCCCCc2nnc(NN)n2N)n1N | > 100 µM (inactive) | 55.3 µM (inactive) | > 100 µM (inactive) | 16.9 µM (inactive) |  | 76.9 µM (inactive) |  | > 100 µM | 33.1 µM (inactive) | > 100 µM (inactive) | 37.2 µM (inactive) | > 100 µM (inactive) | > 100 µM (inactive) | 33.2 µM (inactive) | > 100 µM (inactive) | 60.3 µM (inactive) | > 100 µM (inactive) | > 100 µM (inactive) | > 100 µM (inactive) | > 100 µM (inactive)
14 | CNc1ncnc2c1nc(NC1CCCC1)n2C1OC(CO)C(O)C1O (stereo not drawn) | > 100 µM (inactive) |  | > 100 µM (inactive) | > 100 µM (inactive) |  | > 100 µM (inactive) | > 100 µM (inactive) | > 100 µM | > 100 µM (inactive) | > 100 µM (inactive) | > 100 µM (inactive) | > 100 µM (inactive) | > 100 µM (inactive) | > 100 µM (inactive) | > 100 µM (inactive) |  | > 100 µM (inactive) | > 100 µM (inactive) | > 100 µM (inactive) | > 100 µM (inactive)
15 | NC(=O)CC[C@H]1C(=O)N=C(N)N1C(=O)OCc1ccccc1 | > 100 µM (inactive) | > 100 µM (inactive) | > 100 µM (inactive) | > 100 µM (inactive) | > 100 µM (inactive) | > 100 µM (inactive) | > 100 µM (inactive) | > 100 µM | > 100 µM (inactive) | > 100 µM (inactive) | > 100 µM (inactive) | > 100 µM (inactive) |  | > 100 µM (inactive) | > 100 µM (inactive) | > 100 µM (inactive) | > 100 µM (inactive) |  | > 100 µM (inactive) | > 100 µM (inactive)
16 | C=C1CC[C@H]2C(C)=CC[C@H]3C(=C)C(=O)O[C@@H]3[C@@H]12 [EREMANTHIN] | > 100 µM (inactive) | > 100 µM (inactive) | > 100 µM (inactive) | > 100 µM (inactive) |  | > 100 µM (inactive) | > 100 µM (inactive) | > 100 µM | > 100 µM (inactive) | > 100 µM (inactive) |  | > 100 µM (inactive) | > 100 µM (inactive) | > 100 µM (inactive) | > 100 µM (inactive) |  | > 100 µM (inactive) | > 100 µM (inactive) | > 100 µM (inactive) | 92 µM (inactive)
